In the supplement of paper PMC10307832:

How the values were obtained:
Assay in all cases: relative viability (nuclei count vs DMSO), 5 days (fraction); higher = more cells survive
VE-821 + Lapatinib = compound: CS(=O)(=O)c1ccc(-c2cnc(N)c(C(=O)Nc3ccccc3)n2)cc1 [VE-821] + CS(=O)(=O)CCNCc1ccc(-c2ccc3ncnc(Nc4ccc(OCc5cccc(F)c5)c(Cl)c4)c3c2)o1 [Lapatinib] (partner 2 µM)
Outline: (§1)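 One day after seeding in 1536-well plates, lung cancer cell lines were dosed by pin tool. Dosing was either single-drug or a fixed anchor-drug dose plus five library-drug doses (not always all listed) in √10 steps. After 5 days, nuclei were stained in one fix-and-stain step and counted on 4× images, and relative viability is the nuclei count of treated wells over that of vehicle wells, given as the median of duplicate plates.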

Ruxolitinib + Trametinib = compound: N#CC[C@H](C1CCCC1)n1cc(-c2ncnc3[nH]ccc23)cn1 [Ruxolitinib] + CC(=O)Nc1cccc(-n2c(=O)n(C3CC3)c(=O)c3c(Nc4ccc(I)cc4F)n(C)c(=O)c(C)c32)c1 [Trametinib] (partner 0.02 µM)
Outline: as §1

[1] = compound: N#CC[C@H](C1CCCC1)n1cc(-c2ncnc3[nH]ccc23)cn1 [Ruxolitinib] + CC(=O)c1c(C)c2cnc(Nc3ccc(N4CCNCC4)cn3)nc2n(C2CCCC2)c1=O [Palbociclib] (partner 0.5 µM)
Outline: as §1

Ruxolitinib + Crizotinib = compound: N#CC[C@H](C1CCCC1)n1cc(-c2ncnc3[nH]ccc23)cn1 [Ruxolitinib] + C[C@@H](Oc1cc(-c2cnn(C3CCNCC3)c2)cnc1N)c1c(Cl)ccc(F)c1Cl [Crizotinib] (partner 1 µM)
Outline: as §1

Cell Line | relative viability (VE-821 + Lapatinib; first compound 0.08 µM) | relative viability (VE-821 + Lapatinib; first compound 0.253 µM) | relative viability (VE-821 + Lapatinib; first compound 0.8 µM) | relative viability (VE-821 + Lapatinib; first compound 2.53 µM) | relative viability (VE-821 + Lapatinib; first compound 8 µM) | relative viability (Ruxolitinib + Trametinib; first compound 0.08 µM) | relative viability (Ruxolitinib + Trametinib; first compound 0.253 µM) | relative viability (Ruxolitinib + Trametinib; first compound 0.8 µM) | relative viability (Ruxolitinib + Trametinib; first compound 2.53 µM) | relative viability (Ruxolitinib + Trametinib; first compound 8 µM) | relative viability ([1]; first compound 0.08 µM) | relative viability ([1]; first compound 0.253 µM) | relative viability ([1]; first compound 0.8 µM) | relative viability ([1]; first compound 2.53 µM) | relative viability ([1]; first compound 8 µM) | relative viability (Ruxolitinib + Crizotinib; first compound 0.08 µM) | relative viability (Ruxolitinib + Crizotinib; first compound 0.253 µM) | relative viability (Ruxolitinib + Crizotinib; first compound 0.8 µM) | relative viability (Ruxolitinib + Crizotinib; first compound 2.53 µM) | relative viability (Ruxolitinib + Crizotinib; first compound 8 µM)
EPLC-272H | 1.07 | 0.976 | 1.12 | 1.24 | 0.848 | 0.322 | 0.334 | 0.41 | 0.286 | 0.337 | 0.285 | 0.331 | 0.38 | 0.365 | 0.412 | 0.925 | 0.945 | 1.2 | 0.729 | 0.863
EMC-BAC-2 | 1.04 | 0.902 | 0.97 | 1.01 | 0.873 | 0.886 | 0.806 | 1.08 | 0.768 | 0.948 | 0.518 | 0.507 | 0.58 | 0.47 | 0.418 | 0.801 | 0.782 | 0.85 | 0.68 | 0.445
PC-3 [JPC-3] | 0.512 | 0.474 | 0.461 | 0.482 | 0.424 |  | 0.711 | 0.79 | 0.654 | 0.64 |  | 0.596 | 0.579 | 0.566 | 0.553 | 0.886 | 1 | 0.998 | 1.01 | 0.874
NCI-H1666 | 0.839 | 0.57 | 0.713 | 0.623 | 0.462 | 0.834 | 0.87 | 0.871 | 0.76 | 0.881 | 0.66 | 0.613 | 0.654 | 0.675 | 0.632 | 1.03 | 0.974 | 0.986 | 0.878 | 0.909
NCI-H1915 | 1 | 0.999 | 0.994 | 1.04 | 0.88 | 0.315 | 0.311 | 0.325 | 0.153 | 0.253 | 0.515 | 0.516 | 0.579 | 0.443 | 0.481 | 0.903 | 0.925 | 1.01 | 0.835 | 0.864
HCC-15 | 0.958 | 0.875 | 0.87 | 1.09 | 0.796 | 0.348 | 0.382 | 0.395 | 0.322 | 0.355 | 0.708 | 0.718 | 0.759 | 0.663 | 0.635 | 0.774 | 0.839 | 0.883 | 0.794 | 0.693
EKVX | 0.209 | 0.196 | 0.219 | 0.242 | 0.186 |  | 0.318 | 0.348 | 0.265 | 0.361 |  | 0.358 | 0.393 | 0.34 | 0.333 | 0.894 | 0.983 | 1.07 | 0.757 | 0.798
NCI-H1792 | 1.04 | 0.964 | 0.913 | 0.966 | 0.816 | 0.38 | 0.498 | 0.407 | 0.347 | 0.359 | 0.595 | 0.565 | 0.631 | 0.632 | 0.575 | 1.01 | 0.893 | 0.946 | 0.753 | 0.85
PC-14 | 0.336 | 0.297 | 0.286 | 0.32 | 0.277 |  | 0.829 | 1.17 | 0.45 | 0.625 |  | 0.546 | 0.595 | 0.46 | 0.304 |  | 0.949 | 0.883 | 0.819 | 0.655
NCI-H650 | 0.887 | 0.929 | 0.903 | 0.957 | 0.982 | 0.972 | 1.05 | 0.935 | 0.681 | 0.962 | 0.325 | 0.339 | 0.347 | 0.317 | 0.321 |  | 0.77 | 0.846 | 0.644 | 0.54
NCI-H1650 | 0.845 | 0.749 | 0.705 | 0.757 | 0.45 | 0.331 | 0.597 | 0.628 | 0.27 | 0.541 | 0.333 | 0.345 | 0.395 | 0.287 | 0.356 |  | 0.9 | 1.11 | 0.83 | 0.848
NCI-H1355 | 1.06 | 1.05 | 0.834 | 1.07 | 0.627 | 0.372 | 0.372 | 0.395 | 0.347 | 0.386 | 0.416 | 0.371 | 0.429 | 0.402 | 0.368 | 1.08 | 1.01 | 1.06 | 0.839 | 0.907
HOP-62 | 1.16 | 1.03 | 0.958 | 1.06 | 0.947 | 0.414 | 0.398 | 0.476 | 0.188 | 0.37 | 0.454 | 0.451 | 0.45 | 0.435 | 0.411 |  | 1.05 | 0.707 | 1.01 | 0.749
NCI-H3122 | 1.06 | 1 | 0.926 | 1.03 | 1 | 0.232 | 0.192 | 0.21 | 0.167 | 0.227 | 0.182 | 0.228 | 0.208 | 0.166 | 0.191 | 0.332 | 0.269 | 0.282 | 0.312 | 0.282
NCI-H1437 | 0.816 | 0.71 | 0.763 | 0.871 | 0.614 | 0.528 | 0.632 | 0.732 | 0.564 | 0.455 | 0.541 | 0.41 | 0.448 | 0.417 | 0.378 | 0.924 | 1.08 | 0.872 | 0.795 | 0.778
BEN | 0.845 | 0.775 | 0.657 | 0.8 | 0.662 | 1.01 | 1.01 | 1.13 | 0.99 | 1.35 | 0.488 | 0.456 | 0.504 | 0.503 | 0.51 | 0.832 | 1.01 | 1.07 | 0.735 | 0.95
NCI-H520 | 0.874 | 0.845 |  | 0.789 | 0.519 | 0.87 | 0.663 | 0.823 | 0.609 | 0.574 | 0.243 | 0.218 | 0.251 | 0.204 | 0.258 |  | 0.714 | 0.964 | 0.708 | 0.645
